Measured values taken from patent US11406642B2, “DNP and DNP prodrug treatment of neuromuscular, neurodegenerative, autoimmune, developmental, traumatic brain injury, concussion, dry eye disease, hearing loss and/or metabolic diseases” (priority 2016, dated 2022).

Columns and labels:
[1] = system: noise induced hearing loss; experiment: In vivo noise exposure, Compound Action Potential threshold; parameters: species or system Rats; settings: for CAP threshold (compound + Noise): noise 8 h, 105 dB, 8-16 kHz, 5 days oral gavage q.d., 2,4-DNP 5 mpk, II-38 80 mpk, 1-week post exposure; for threshold lower than Noise alone group: same study, Noise alone 25 dB
Protocol: In vivo Noise Exposure Pilot DNP (2,4-DNP) & Prodrug of DNP (II-38): Rats, N=6/group: control, noise alone, noise+2,4-DNP (5 mpk), noise+II-38 (80 mpk). Noise exposure: 8 h, 105 dB, noise band 8-16 kHz. Treatment duration 5 days oral gavage q.d. starting day of noise. Endpoint: Compound Action Potential (CAP) recorded from the round window membrane 1-week post exposure. Threshold: intensity in dB SPL needed to produce 4 μV CAP amplitude.

[2] = system: EAE mouse model of Multiple Sclerosis; experiment: EAE MS model (clinical score, body weight); format: in vivo; settings: for progression of paralysis monitored as Clinical Score: administered 7-days after induction of MOG35-55 myelin peptide; for weight loss / body weight changes: versus Placebo mice
Text: FIG. 1 is a chart illustrating the comparative effect of two compounds of the invention at lowering or blocking progression of paralysis as monitored as a Clinical Score (EAE MS model comparing parent (2,4-DNP) to prodrug (II-38) at equivalent exposures of 5 mpk parent to […] prodrug for efficacy). Legend: diamond—placebo; square—2,4-DNP 5 mpk; triangle—II-38 8 mpk; x—II-38 16 mpk; asterisk—II-38 80 mpk. P values by Ordinal Regression: 2,4-DNP 5 mpk=0.0192; II-38 8 mpk=0.000954; II-38 16 mpk=0.000124; II-38 80 mpk=0.00014 (results from logistic regression model using ordinal package from cran project, www.cran.r-project.org).
Legend: diamond—placebo; square—2,4-DNP 5 mpk; triangle—II-38 8 mpk; x—II-38 16 mpk; asterisk—II-38 80 mpk. All doses significant to preserving body weight. P values by Ordinal Regression: 2,4-DNP 5 mpk=0.0188; II-38 8 mpk<0.0001; II-38 16 mpk=0.044; II-38 80 mpk<0.0001.
In one embodiment, the compositions and methods of the invention relate to a pharmacological intervention that abolishes overt ROS production and improves the quality of the mitochondrial population by mitophagy, induces Brain Derived Neurotrophin Factor (BDNF), increases cAMP, and/or remodels cellular expression. In one embodiment, a drug of the invention thus becomes “disease modifying.” In one embodiment, a prodrug of DNP (II-38) was administered to a mouse model of Multiple Sclerosis, called the EAE, 7-days after induction of the MOG35-55 myelin peptide. The ProDrug of DNP, II-38, was administered at multiples of exposure to 2,4-DNP or DNP. […] Even though DNP historically was used in the 1930's for weight loss at high doses, here it is shown that it can paradoxically be repositioned to prevent wasting associated with neurodegenerative/autoimmune diseases at low doses.

Row | Compound | CAP threshold (compound + Noise) [1] [dB] | threshold lower than Noise alone group [1] | progression of paralysis monitored as Clinical Score [2] | weight loss / body weight changes [2]
1 | O=[N+]([O-])c1ccc(O)c([N+](=O)[O-])c1 [2,4-DNP, 2,4-dinitrophenol] | 15 | about 10 dB | striking effect at lowering or blocking progression of paralysis | preventing weight loss seen in the Placebo mice
2 | O=C(Oc1ccc([N+](=O)[O-])cc1[N+](=O)[O-])N1CCOCC1 [II-38, 2,4-Dinitrophenyl morpholine-4-carboxylate] | 5 | approximately 20 dB | striking effect at lowering or blocking progression of paralysis | preventing weight loss seen in the Placebo mice
